This is an account of results in patent US20250002475A1 (EPICS THERAPEUTICS, priority 2023, published 2025).

Where only a bound is given, the exact number is not on record here.

The target of assay [1] is T1, recombinant METTL3/METTL14 complex (Homo sapiens, UniProt Q86U44).
T1 construct: purchased Active Motif 311970; host or cells: Sf9 cells
Nature of the assay: METTL3/14 Scintillation Proximity Assay (SPA), RNA methyltransferase activity. It is filed as biochemical. The following applies: 5.31 nM METTL3/14 complex, 250 nM RNA substrate, 1 μM 3H-SAM, 90 min; for compounds marked * best of the two separated forms.

The next assay concerns Caov-3 cells. Nature of the assay: Caov-3 cellular viability assay (ATP-Lite, 72 h). It is filed as cell-based. The following applies: Homo sapiens, ATP-Lite luminescence, % viability relative to DMSO. The protocol: Caov-3 cell line was purchased from ATCC (ATCC® HTB-75™). Cells were isolated from the ovary of a ovarian cancer patient.
Caov-3 cells are cultured in DMEM (ATCC 30-2002) containing 10% heat-inactivated and 0.22 μm filtered FBS (Gibco 10270-106). The cells are seeded at 2.5E+4cell/cm^2 within the recommended subcultivation ratio of 1:3 to 1:6, as stated on the certificate of analysis issues by the provider of the cells.
(§1) Cellular viability assay: Caov-3 cells were plated (50 μL) in 96-well cell culture microplates (PS, F-Bottom black, Cellstar, Greiner 655086) at final concentration of 10000 cells/well. The compounds of the invention were dissolved in DMSO, and a titration curve was generated at 1000× final concentration. Compounds were then diluted 500× in tissue culture medium (RPMI-1640, 10% FBS). Then 50 μl of test compound were added to Caov-3 cells in a final DMSO concentration of 0.1%, final volume 100 μl. A gas permeable sealing membrane was applied to the plate to prevent evaporation (Breathe-Easy sealing membrane, Sigma Z380059-1PK) and cells were incubated for 72 h at 37° C., 5% CO2, 80% RH. After 72 h of treatment, the plates were taken out of the incubator and left for a few minutes at room temperature. 100 μl of the reconstituted reagent ATP-Lite One Step (Perkin Elmer, 6016739) were added to each well. The plates were shaken for 2 min at 700 rpm and placed in the dark for 10 minutes at room temperature before measurement of luminescence intensity with Envision instrument. The raw data were expressed in RLU. Results were expressed in % of viability relative to DMSO control and an IC50 was calculated based on the concentration-response profile of individual compounds.

The subject of another assay is Kasumi-1 cells. Nature of the assay: Kasumi-1 cellular viability assay (ATP-Lite, 72 h). The format is cell-based. Conditions: Homo sapiens, ATP-Lite luminescence, % viability relative to DMSO. How it is done: Kasumi-1 cell line was purchased from ATCC (ATCC® CRL2724™). Cells were isolated from the peripheral blood of a child with acute myeloid leukemia (AML FAB M2) (in 2nd relapse after bone marrow transplantation) in 1989. Most cells are round. Kasumi-1 cells are observed to grow individually or in small clumps in suspension.
Kasumi-1 cells are cultured in RPMI-1640 (Gibco A10491-01) containing 10% heat-inactivated and 0.22 μm filtered FBS (Gibco 10270-106) at a density of 3E+5 and 3E+6 viable cell/mL following the certificate of analysis.
as §1, with “assay: Kasumi-1” for “assay: Caov-3”, “of 15000” for “of 10000”, “to Kasumi-1” for “to Caov-3”, “After 72h” for “After 72 h”, “6016739) was” for “6016739) were”

T1 sequence (Q86U44 whole entry): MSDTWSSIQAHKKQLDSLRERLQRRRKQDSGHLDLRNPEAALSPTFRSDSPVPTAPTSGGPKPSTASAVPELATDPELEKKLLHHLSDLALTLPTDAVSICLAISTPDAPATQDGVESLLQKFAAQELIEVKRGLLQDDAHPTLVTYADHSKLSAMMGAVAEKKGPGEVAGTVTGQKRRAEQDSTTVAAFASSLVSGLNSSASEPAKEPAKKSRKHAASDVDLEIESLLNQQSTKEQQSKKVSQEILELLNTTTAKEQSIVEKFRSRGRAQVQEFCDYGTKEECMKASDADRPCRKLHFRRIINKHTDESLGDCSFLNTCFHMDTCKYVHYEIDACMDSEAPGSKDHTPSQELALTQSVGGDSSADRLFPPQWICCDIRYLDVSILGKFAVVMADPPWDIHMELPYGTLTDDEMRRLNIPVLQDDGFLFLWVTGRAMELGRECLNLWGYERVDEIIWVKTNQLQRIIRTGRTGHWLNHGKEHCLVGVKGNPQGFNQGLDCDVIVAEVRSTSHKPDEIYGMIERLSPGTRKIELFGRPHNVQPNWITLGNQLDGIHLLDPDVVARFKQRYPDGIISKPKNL
T1 sequence (Q9HCE5 whole entry partner): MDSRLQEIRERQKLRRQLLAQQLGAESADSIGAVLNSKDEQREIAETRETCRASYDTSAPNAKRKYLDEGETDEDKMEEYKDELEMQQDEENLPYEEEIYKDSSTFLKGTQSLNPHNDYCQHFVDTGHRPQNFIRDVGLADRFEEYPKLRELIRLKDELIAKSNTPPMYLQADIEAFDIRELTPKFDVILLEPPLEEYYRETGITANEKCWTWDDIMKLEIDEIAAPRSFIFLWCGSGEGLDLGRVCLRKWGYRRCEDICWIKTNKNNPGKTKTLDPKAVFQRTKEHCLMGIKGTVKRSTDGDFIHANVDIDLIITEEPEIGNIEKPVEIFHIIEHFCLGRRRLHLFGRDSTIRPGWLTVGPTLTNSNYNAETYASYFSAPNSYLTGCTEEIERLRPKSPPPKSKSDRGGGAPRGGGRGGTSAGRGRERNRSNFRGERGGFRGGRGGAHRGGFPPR

In general, IC50 refers to the concentration needed to halve the response being measured. Turning to `c1ncc(N2CCCC2)nc1-c1cn(C2(c3ccc(N4CCC[C@@H](NCC5CC5)C4)nn3)COC2)nn1` [Compound 213, (R)-N-(cyclopropylmethyl)-1-(6-(3-(4-(6-(pyrrolidin-1-yl)pyrazin-2-yl)-1H-1,2,3-triazol-1-yl)oxetan-3-yl)pyridazin-3-yl)piperidin-3-amine], the half-maximal inhibitory concentration (IC50) in assay [1] is not above 0.05 µM; in the assay with Caov-3 cells, not above 0.5 µM; with Kasumi-1 cells, not above 0.5 µM.

For the molecule `COc1cncc(-c2cn(C(C)c3ccc(N4CCC[C@@H](NCC5CCC5)C4)cn3)nn2)c1` (single isomer, unassigned) [Compound 073], the half-maximal inhibitory concentration (IC50) was not above 0.05 µM in assay [1], 0.5 to 5 µM in the assay with Caov-3 cells and 0.5 to 5 µM in the assay on Kasumi-1 cells. Take `COc1cnnc(-c2cn(C(C)n3ccc(N4CCC[C@@H](NCC5CCC5)C4)cc3=O)nn2)c1` (mixture of isomers) [Compound 093, 4-((R)-3-((cyclobutylmethyl)amino)piperidin-1-yl)-1-(1-(4-(5-methoxypyridazin-3-yl)-1H-1,2,3-triazol-1-yl)ethyl)pyridin-2(1H)-one]: the IC50 in assay [1] was not above 0.05 µM; in the assay on Caov-3 cells it was 0.5 to 5 µM; with Kasumi-1 cells, 0.5 to 5 µM. `CC(c1cnn(-c2cncc(N3CCCC3)n2)c1)c1ccc(N2CCC[C@@H](NCC3CC3)C2)cn1` (single isomer, unassigned) [Compound 354]: the values for the IC50 (in assay [1]; in the assay on Caov-3 cells; with Kasumi-1 cells) were not above 0.05 µM, not above 0.5 µM and not above 0.5 µM, respectively. As to `CC(n1cc(-c2cncc(N3CC4(C3)CC4(F)F)c2)nn1)n1ccc(N2CCC[C@@H](NCC3CC3)C2)cc1=O` (single isomer, unassigned) [Compound 211], the figures for the IC50 (in assay [1]; in the assay with Caov-3 cells; in the assay with Kasumi-1 cells) were not above 0.05 µM, not above 0.5 µM and not above 0.5 µM, respectively. Take `COc1cc(-c2cn(Cc3n[nH]c(N4CCC[C@@H](NCC5CCC5)C4)cc3=O)nn2)c2cn[nH]c2c1` [Compound 039, (R)-6-(3-((cyclobutylmethyl)amino)piperidin-1-yl)-3-((4-(6-methoxy-1H-indazol-4-yl)-1H-1,2,3-triazol-1-yl)methyl)pyridazin-4(1H)-one]: the results for the IC50 (in assay [1]; in the assay with Kasumi-1 cells) were not above 0.05 µM and more than 5 µM, respectively.

As for `c1ncc(C2CC2)cc1-c1cn(C2(c3ccc(N4CCC[C@H](NCC5CC5)C4)cn3)COC2)nn1` [Compound 351, (S)—N-(cyclopropylmethyl)-1-(6-(3-(4-(5-cyclopropylpyridin-3-yl)-1H-1,2,3-triazol-1-yl)oxetan-3-yl)pyridin-3-yl)piperidin-3-amine], the figures for the IC50 (in assay [1]; in the assay with Kasumi-1 cells) were 0.05 to 0.5 µM and 0.5 to 5 µM, respectively. Taken in the same sequence, the figures for `COc1cc(-c2cn(Cn3cnc(N4CCC[C@@H](NCC5CCC5)C4)cc3=O)nn2)c2cn[nH]c2c1` [Compound 041, (R)-6-(3-((cyclobutylmethyl)amino)piperidin-1-yl)-3-((4-(6-methoxy-1H-indazol-4-yl)-1H-1,2,3-triazol-1-yl)methyl)pyrimidin-4(3H)-one] were 0.05 to 0.5 µM and more than 5 µM. Taken in the same sequence, the figures for `COc1cc(-c2cn(Cc3ncc(N4CCCC(NCC5CCC5)C4)cn3)nn2)c2cn[nH]c2c1` (stereo not drawn) [Compound 043, N-(cyclobutylmethyl)-1-(2-((4-(6-methoxy-1H-indazol-4-yl)-1H-1,2,3-triazol-1-yl)methyl)pyrimidin-5-yl)piperidin-3-amine] were not above 0.05 µM and more than 5 µM. Turning to `COc1cc(-c2cn(Cc3ccc(N4CCCC(NCC5CCC5)C4)c(=O)[nH]3)nn2)c2cn[nH]c2c1` (stereo not drawn) [Compound 052, 3-(3-((cyclobutylmethyl)amino)piperidin-1-yl)-6-((4-(6-methoxy-1H-indazol-4-yl)-1H-1,2,3-triazol-1-yl)methyl)pyridin-2(1H)-one], the concentration for half-maximal inhibition (IC50) in assay [1] was 0.05 to 0.5 µM; with Kasumi-1 cells, more than 5 µM. As for `COc1cc(-c2cn(Cc3ccc(N4CCC[C@@H](NC5CCCC5)C4)nn3)nn2)c2cn[nH]c2c1` [Compound 023, (R)-N-cyclopentyl-1-(6-((4-(6-methoxy-1H-indazol-4-yl)-1H-1,2,3-triazol-1-yl)methyl)pyridazin-3-yl)piperidin-3-amine], the IC50 with Caov-3 cells and with Kasumi-1 cells was 0.5 to 5 µM each time. Regarding `CC(c1ccc(N2CCC[C@@H](NCC3CC3)C2)nn1)c1nnc(-c2cncc(N3CCCC3)n2)s1` (stereo partly drawn) [Compound 353, (3R)—N-(cyclopropylmethyl)-1-(6-(1-(5-(6-(pyrrolidin-1-yl)pyrazin-2-yl)-1,3,4-thiadiazol-2-yl)ethyl)pyridazin-3-yl)piperidin-3-amine], the half-maximal inhibitory concentration (IC50) was not above 0.05 µM in assay [1] and not above 0.5 µM with Caov-3 cells. As for `COc1cc(-c2cn(Cc3ccc(N4CCC[C@@H](N(C)CC5CCC5)C4)nn3)nn2)c2cn[nH]c2c1` [Compound 022, (R)-N-(cyclobutylmethyl)-1-(6-((4-(6-methoxy-1H-indazol-4-yl)-1H-1,2,3-triazol-1-yl)methyl)pyridazin-3-yl)-N-methylpiperidin-3-amine], the values for the half-maximal inhibitory concentration (IC50) with Caov-3 cells and in the assay on Kasumi-1 cells were more than 5 µM and 0.5 to 5 µM, respectively.

Turning to `COc1cc(-c2cn(Cc3cnc(N4CCCC(NCC5CCC5)C4)nc3)nn2)c2cn[nH]c2c1` (stereo not drawn) [Compound 046, N-(cyclobutylmethyl)-1-(5-((4-(6-methoxy-1H-indazol-4-yl)-1H-1,2,3-triazol-1-yl)methyl)pyrimidin-2-yl)piperidin-3-amine], the values for the IC50 (in assay [1]; in the assay on Kasumi-1 cells) were 0.05 to 0.5 µM and more than 5 µM, respectively. In the case of `COc1cncc(-c2nnn(C(C)n3ccc(N4CCC[C@@H](NCC5CCC5)C4)cc3=O)n2)c1` (mixture of isomers) [Compound 106, 4-((R)-3-((cyclobutylmethyl)amino)piperidin-1-yl)-1-(1-(5-(5-methoxypyridin-3-yl)-2H-tetrazol-2-yl)ethyl)pyridin-2(1H)-one], the concentration for half-maximal inhibition (IC50) in assay [1] was not above 0.05 µM. On the same count and under the same terms, the result for `COc1cncc(-c2noc(C(C)n3ccc(N4CCC[C@@H](NCC5CCC5)C4)cc3=O)n2)c1` (stereo partly drawn) [Compound 125, 4-((R)-3-((cyclobutylmethyl)amino)piperidin-1-yl)-1-(1-(3-(5-methoxypyridin-3-yl)-1,2,4-oxadiazol-5-yl)ethyl)pyridin-2(1H)-one] reads 0.05 to 0.5 µM.

As to `CC(NC(=O)c1cc(=O)n2ccccc2n1)c1ccc(N2CCC[C@@H](NCC3CCC3)C2)cc1` (stereo partly drawn) [Compound 100, N-(1-(4-((R)-3-((cyclobutylmethyl)amino)piperidin-1-yl)phenyl)ethyl)-4-oxo-4H-pyrido[1,2-a]pyrimidine-2-carboxamide], in assay [1], the IC50 lay within 0.05 to 0.5 µM. The same measure, in the same setting: as for `COc1cncc(-c2cn(Cc3ccc(N4C[C@H](NCC5CCC5)CC[C@@H]4C)nn3)nn2)c1` [Compound 038, (3R,6S)-N-(cyclobutylmethyl)-1-(6-((4-(5-methoxypyridin-3-yl)-1H-1,2,3-triazol-1-yl)methyl)pyridazin-3-yl)-6-methylpiperidin-3-amine], the figure is 0.05 to 0.5 µM; as for `CNc1cnnc(-c2cn(C(C)n3ccc(N4CCC[C@@H](NCC5CCC5)C4)cc3=O)nn2)c1` (mixture of isomers) [Compound 122, 4-((R)-3-((cyclobutylmethyl)amino)piperidin-1-yl)-1-(1-(4-(5-(methylamino)pyridazin-3-yl)-1H-1,2,3-triazol-1-yl)ethyl)pyridin-2(1H)-one], not above 0.05 µM; as for `CC(NC(=O)c1cc(=O)n2ccccc2n1)c1ccc(N2CCC[C@@H](NCC3CCC3)C2)nc1` (stereo partly drawn) [Compound 072, N-(1-(6-((R)-3-((cyclobutylmethyl)amino)piperidin-1-yl)pyridin-3-yl)ethyl)-4-oxo-4H-pyrido[1,2-a]pyrimidine-2-carboxamide], 0.05 to 0.5 µM.
